From patent US20190125888A1, “TARGETED CONJUGATES AND PARTICLES AND FORMULATIONS THEREOF” (priority 2015, published 2019)
pIC50, pKi: −log10 of the molar value. Like-named read-outs stand apart in the source and are kept apart here. Where a SMILES comes first, the peptide text is derived from it. Bridges are numbered along the chain shown (N, C = ends). [ ]: non-standard residue; d: D form. The star is where a group is joined. NH(CH2)2SS(DM1) = COc1cc2cc(c1Cl)N(C)C(=O)C[C@H](OC(=O)[C@H](C)N(C)C(=O)CCSSCCN*)[C@]1(C)O[C@H]1[C@H](C)[C@@H]1C[C@@](O)(NC(=O)O1)[C@H](OC)/C=C/C=C(\C)C2; X1 = COc1cc2cc(c1Cl)N(C)C(=O)C[C@H](OC(=O)[C@H](C)N(C)C(=O)CCS*)[C@]1(C)O[C@H]1[C@H](C)[C@@H]1C[C@@](O)(NC(=O)O1)[C@H](OC)/C=C/C=C(\C)C2; Octanoyl = CCCCCCCC(=O)*

How the values were obtained:
[1] = Ligand charge of maytansinoid conjugates; type: physicochemical
[2] = system: NCI-H524 (ATCC) human lung cancer cells; type: cell-based
Protocol: FIG. 1 is a graph of various conjugates represented as bars and showing on the Y-axis their activity in an H524 proliferation assay with and without competition by octreotide. […] This illustrates the suprprising finding that only maytansinoid conjugates show activity that is dependent on the receptor.
Conjugates were assessed in an in vitro assay evaluating inhibition of cell proliferation. NCI-H524 (ATCC) human lung cancer cells were plated in 96 well, V-bottomed plates (Costar) at a concentration of 5,000 cells/well and 24 hours later were treated with compound for 6 hours and further incubated 66 hours. Compound starting dose was 20 μM and three fold serial dilutions were done for a total of ten points. After 6 hours of treatment, cells were spun down, the drug containing media was removed, and fresh complete medium was added and used to resuspend the cells, which were spun again. After removal of the wash media, the cells were resuspended in complete medium, then transferred into white walled, flat bottomed 96 well plates. […] Proliferation was measured using CellTiter Glo reagent using the standard protocol (Promega) and a Glomax multi+detection system (Promega). Percent proliferation inhibition was calculated using the following formula: % inhibition=(control-treatment)/control*100. Control is defined as vehicle alone. IC50 curves were generated using the nonlinear regression analysis (four parameter) with GraphPad Prism 6.
Conjugates were tested for their activity dependence on the somatostatin receptor. Active agent Z in the conjugate was selected from auristatin, carbazitaxel, DM1, doxorubicin, platinum, SN-38 and vinblastine. Active agent Z is connected to octreotide with various linkers. Proliferation IC50 values of the conjugates were measured. Proliferation IC50 values of the conjugates without octreotide competition were also measured. The ratio of IC50 with octreotide competition and IC50 without octreotide competition is an indicator of whether activity is at least particially dependent on bind to the somatostatin receptor. […] Therefore, the activity of conjugates comprising DM1 is dependent on the binding to the somatostatin receptor.

[3] = Chrom LogP of maytansinoid conjugates; type: physicochemical
[4] = target: human SSTR2 (Homo sapiens, UniProt P30874); test: Radioligand-receptor binding assay, [125I] somatostatin, membranes from SSTR2 expressing CHO-K1 cells
Protocol: These conjugates were also assessed in an in vitro assay evaluating binding to the somatostatin receptor 2 (SSTR2). A radioligand-receptor binding assay was conducted at Eurofins Panlabs (Taiwan) to determine the affinity of conjugates described herein to the SSTR2. The assay measures binding of radiolabeled ligand, [^125I] labeled somatostatin, to human SSTR2 using membrane preparations from SSTR2 expressing CHO-K1 cells. Membranes were incubated with radiolabeled somatostatin (0.03 nM) in the presence of conjugate/compound starting at a dose of 10 uM using 6× serial dilutions to obtain a 10-pt curve. After a four hour incubation, membranes were filtered and washed 3× and counted to determine the remaining [^125I] somatostatin bound to the receptor. IC50 values were determined by a non-linear, least squares regression analysis using MathIQ™ (ID Business Solutions Ltd., UK).

[5] = system: human NCI-H69 SCLC; test: H69 xenograft efficacy study, tumor growth inhibition; type: in vivo, mice
Protocol: Applicants assessed the activity of maytansinoid conjugates in vivo. In these experiments, the ability of conjugates to affect the growth of human NCI-H69 SCLC was tested. For the in vivo study, 8 week old female NCR nude mice were inoculated subcutaneously into the right flank with 2 million cells in 1:1 RPMI 1640 (Invitrogen, Carlsbad, Calif.)/Matrigel® (BD Biosciences, San Jose, Calif.). Tumor measurements were taken twice weekly, using vernier calipers. Tumor volume was calculated using the formula: V=0.5×width×width×length.
When tumors approached a volume of 200 mm^3, mice were randomized into four groups of ten animals. Mice were treated with vehicle control (10% propylene glycol in water for injection) and maytansinoid conjugates (10% propylene glycol in water for injection). Final tumor volumes were analyzed using with a one-way analysis of variance and Tukey multiple comparison test.

[6] = read-out: H524 IC50 6 h, 6 hours treatment, further 66 hours incubation
[7] = read-out: H524 IC50 with 100 μM octreotide 6 h, with 100 μM octreotide competition, 6 h treatment

human SSTR2, sequence (P30874 whole entry): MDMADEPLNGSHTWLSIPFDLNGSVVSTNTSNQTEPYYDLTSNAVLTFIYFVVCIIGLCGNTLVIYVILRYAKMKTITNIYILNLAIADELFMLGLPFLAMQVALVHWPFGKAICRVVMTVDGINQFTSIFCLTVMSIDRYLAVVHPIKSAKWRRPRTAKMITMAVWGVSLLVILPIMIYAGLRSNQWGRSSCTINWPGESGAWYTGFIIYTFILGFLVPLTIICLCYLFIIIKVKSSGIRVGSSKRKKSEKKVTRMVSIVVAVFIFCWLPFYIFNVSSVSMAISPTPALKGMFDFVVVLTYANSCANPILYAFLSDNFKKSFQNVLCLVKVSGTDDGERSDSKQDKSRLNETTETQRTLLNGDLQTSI

| Structure (SMILES) | Ligand charge [1] | pIC50 [2, 6] | pIC50 [2, 7] | chromatographic logP [3] | pKi [4] | TGI % Day 13 ([5]; 0.7 mg/kg once weekly for two doses, Day 13) | TGI % Day 17 ([5]; 0.7 mg/kg once weekly for two doses, Day 17) | TGI % Day 20 ([5]; 0.7 mg/kg once weekly for two doses, Day 20) | TGI % Day 24 ([5]; 0.7 mg/kg once weekly for two doses, Day 24) | TGI % Day 30 ([5]; 0.7 mg/kg once weekly for two doses, Day 30) | TGI % at day 22 ([5]; Dose 0.67 × 2 mg/kg, total dose 1.34 mg/kg) |
| --- | --- | --- | --- | --- | --- | --- | --- | --- | --- | --- | --- |
| CCNC(=O)[C@@H](NC(=O)[C@@H]1CSSC[C@H](NC(=O)[C@@H](Cc2ccccc2)NCCCSSCCC(=O)N(C)[C@@H](C)C(=O)O[C@@H]2CC(=O)N(C)c3cc(cc(OC)c3Cl)C/C(C)=C/C=C/[C@@H](OC)[C@@]3(O)C[C@H](OC(=O)N3)[C@@H](C)[C@@H]3O[C@@]23C)C(=O)N[C@@H](Cc2ccc(O)cc2)C(=O)N[C@H](Cc2c[nH]c3ccccc23)C(=O)N[C@@H](CCCCN)C(=O)N[C@@H]([C@@H](C)O)C(=O)N1)[C@@H](C)O [Conjugate 50] | +2 | 7.37 | 6.83 | 2.32 | – | – | – | – | – | – | – |
| COc1cc2cc(c1Cl)N(C)C(=O)C[C@H](OC(=O)[C@H](C)N(C)C(=O)CCSSCCC(=O)NC[C@H](NC(=O)[C@@H]1CSSC[C@H](NC(=O)[C@H](N)Cc3ccccc3)C(=O)N[C@@H](Cc3ccc(O)cc3)C(=O)N[C@H](Cc3c[nH]c4ccccc34)C(=O)N[C@@H](CCCCN)C(=O)N[C@@H]([C@@H](C)O)C(=O)N1)C(N)=O)[C@]1(C)O[C@H]1[C@H](C)[C@@H]1C[C@@](O)(NC(=O)O1)[C@H](OC)/C=C/C=C(\C)C2 [Conjugate 44] | +2 | 8.44 | 6.66 | – | 10.66 | 58.9% | 56.7% | 59.6% | 53.1% | 56.1% | 60% |
| COc1cc2cc(c1Cl)N(C)C(=O)C[C@H](OC(=O)[C@H](C)N(C)C(=O)CCSSC[C@H](NC(=O)[C@@H]1CSSC[C@H](NC(=O)[C@@H](Cc3ccccc3)NC(=O)Nc3ccccc3)C(=O)N[C@@H](Cc3ccc(O)cc3)C(=O)N[C@H](Cc3c[nH]c4ccccc34)C(=O)N[C@@H](CCCCN)C(=O)N[C@@H]([C@@H](C)O)C(=O)N1)C(N)=O)[C@]1(C)O[C@H]1[C@H](C)[C@@H]1C[C@@](O)(NC(=O)O1)[C@H](OC)/C=C/C=C(\C)C2 [Conjugate 42] | +1 | 8.77 | 6.94 | 2.87 | 10.38 | – | – | – | – | – | – |
| COc1cc2cc(c1Cl)N(C)C(=O)C[C@H](OC(=O)[C@H](C)N(C)C(=O)CCSSC[C@H](NC(=O)[C@@H]1CSSC[C@H](NC(=O)[C@@H](Cc3ccccc3)NS(C)(=O)=O)C(=O)N[C@@H](Cc3ccc(O)cc3)C(=O)N[C@H](Cc3c[nH]c4ccccc34)C(=O)N[C@@H](CCCCN)C(=O)N[C@@H]([C@@H](C)O)C(=O)N1)C(N)=O)[C@]1(C)O[C@H]1[C@H](C)[C@@H]1C[C@@](O)(NC(=O)O1)[C@H](OC)/C=C/C=C(\C)C2 [Conjugate 34] | +1 | 7.89 | 7.08 | 2.57 | 9.74 | – | – | – | – | – | – |
| CCCCCCNC(=O)[C@@H](NC(=O)[C@@H]1CSSC[C@H](NC(=O)[C@@H](Cc2ccccc2)NC(=O)NCCSSCCC(=O)N(C)[C@@H](C)C(=O)O[C@H]2CC(=O)N(C)c3cc(cc(OC)c3Cl)C/C(C)=C/C=C/[C@@H](OC)[C@@]3(O)C[C@H](OC(=O)N3)[C@@H](C)[C@@H]3O[C@@]23C)C(=O)N[C@@H](Cc2ccc(O)cc2)C(=O)N[C@H](Cc2c[nH]c3ccccc23)C(=O)N[C@@H](CCCCN)C(=O)N[C@@H]([C@@H](C)O)C(=O)N1)[C@@H](C)O [Conjugate 52] | +1 | 7.64 | 6.78 | 3.24 | – | – | – | – | – | – | – |
| COc1cc2cc(c1Cl)N(C)C(=O)C[C@H](OC(=O)[C@H](C)N(C)C(=O)CCSSC[C@H](NC(=O)[C@@H]1CSSC[C@H](NC(=O)[C@H](N)Cc3c[nH]c4ccccc34)C(=O)N[C@@H](Cc3ccc(O)cc3)C(=O)N[C@H](Cc3c[nH]c4ccccc34)C(=O)N[C@@H](CCCCN)C(=O)N[C@@H]([C@@H](C)O)C(=O)N1)C(N)=O)[C@]1(C)O[C@H]1[C@H](C)[C@@H]1C[C@@](O)(NC(=O)O1)[C@H](OC)/C=C/C=C(\C)C2 [Conjugate 24] (H-[dW]CY[dW]KTCC(X1)-NH2; disulfide 2-7) | +2 | 6.85 | 6.67 | 2.03 | – | – | – | – | – | – | – |
| CCNC(=O)[C@@H](NC(=O)[C@@H]1CSSC[C@H](NC(=O)[C@@H](Cc2ccccc2)NC(=O)NCCSSCCC(=O)N(C)[C@@H](C)C(=O)O[C@H]2CC(=O)N(C)c3cc(cc(OC)c3Cl)C/C(C)=C/C=C/[C@@H](OC)[C@@]3(O)C[C@H](OC(=O)N3)[C@@H](C)[C@@H]3O[C@@]23C)C(=O)N[C@@H](Cc2ccc(O)cc2)C(=O)N[C@H](Cc2c[nH]c3ccccc23)C(=O)N[C@@H](CCCCN)C(=O)N[C@@H]([C@@H](C)O)C(=O)N1)[C@@H](C)O [Conjugate 53] | +1 | 7.38 | 7.07 | 2.45 | – | – | – | – | – | – | – |
| COc1cc2cc(c1Cl)N(C)C(=O)C[C@H](OC(=O)[C@H](C)N(C)C(=O)CCSSC[C@H](NC(=O)[C@@H]1CSSC[C@H](NC(=O)[C@@H](Cc3ccccc3)NC(=O)NCCC(F)(F)C(F)(F)C(F)(F)C(F)(F)C(F)(F)C(F)(F)C(F)(F)C(F)(F)F)C(=O)N[C@@H](Cc3ccc(O)cc3)C(=O)N[C@H](Cc3c[nH]c4ccccc34)C(=O)N[C@@H](CCCCN)C(=O)N[C@@H]([C@@H](C)O)C(=O)N1)C(N)=O)[C@]1(C)O[C@H]1[C@H](C)[C@@H]1C[C@@](O)(NC(=O)O1)[C@H](OC)/C=C/C=C(\C)C2 [Conjugate 40] | +1 | – | – | 4 | 8.45 | – | – | – | – | – | – |
| COc1cc2cc(c1Cl)N(C)C(=O)C[C@H](OC(=O)[C@H](C)N(C)C(=O)CCSSCCNC(=O)[C@@H](NC(=O)[C@@H]1CSSC[C@H](NC(=O)[C@@H](Cc3ccccc3)NC(=O)NC3CCCCC3)C(=O)N[C@@H](Cc3ccc(O)cc3)C(=O)N[C@H](Cc3c[nH]c4ccccc34)C(=O)N[C@@H](CCCCN)C(=O)N[C@@H]([C@@H](C)O)C(=O)N1)[C@@H](C)O)[C@]1(C)O[C@H]1[C@H](C)[C@@H]1C[C@@](O)(NC(=O)O1)[C@H](OC)/C=C/C=C(\C)C2 [Conjugate 20] | +1 | 7.96 | 7.28 | 3.1 | – | – | – | – | – | – | – |
| CCCC(=O)N[C@H](Cc1ccccc1)C(=O)N[C@H]1CSSC[C@@H](C(=O)N[C@H](C(=O)NCCSSCCC(=O)N(C)[C@@H](C)C(=O)O[C@H]2CC(=O)N(C)c3cc(cc(OC)c3Cl)C/C(C)=C/C=C/[C@@H](OC)[C@@]3(O)C[C@H](OC(=O)N3)[C@@H](C)[C@@H]3O[C@@]23C)[C@@H](C)O)NC(=O)[C@H]([C@@H](C)O)NC(=O)[C@H](CCCCN)NC(=O)[C@@H](Cc2c[nH]c3ccccc23)NC(=O)[C@H](Cc2ccc(O)cc2)NC1=O [Conjugate 19] | +1 | 8.16 | 6.95 | 2.88 | – | – | – | – | – | – | – |
| CCCCCCCC(=O)N[C@H](Cc1ccccc1)C(=O)N[C@H]1CSSC[C@@H](C(=O)NCCSSCCC(=O)N(C)[C@@H](C)C(=O)O[C@H]2CC(=O)N(C)c3cc(cc(OC)c3Cl)C/C(C)=C/C=C/[C@@H](OC)[C@@]3(O)C[C@H](OC(=O)N3)[C@@H](C)[C@@H]3O[C@@]23C)NC(=O)[C@H]([C@@H](C)O)NC(=O)[C@H](CCCCN)NC(=O)[C@@H](Cc2c[nH]c3ccccc23)NC(=O)[C@H](Cc2ccc(O)cc2)NC1=O [Conjugate 21] (Octanoyl-[dF]CY[dW]KTC-{NH(CH2)2SS(DM1)}; disulfide 2-7) | +1 | – | – | 3.48 | 8.89 | – | – | – | – | – | – |
